Test results as given in publication PMC11843613, “Further Optimization of the mGlu1 PAM VU6024578/BI02982816: Discovery and Characterization of VU6033685” (ACS Chemical Neuroscience, 2025).

What was measured:
h mGlu5 = h mGlu5 (Homo sapiens, UniProt P41594); assay: mGlu5 PAM functional assay; format: cell-based
[1] = Predicted hepatic clearance (c); format: in vitro ADME, c (presumably cynomolgus)
Procedure: at half log concentrations in DMSO were further diluted in assay buffer. The compounds or DMSO vehicle were added to cells and incubated for 2.5 min and an EC20 concentration of glutamate was added and incubated for 1 min. An ECmax concentration of glutamate was also added to cells that were incubated with DMSO vehicle to accurately calculate the EC20 calcium response. Data were normalized by subtracting the basal florescent peak before EC20 agonist addition from the maximal peak elicited by EC20 agonist and PAMs. Using GraphPad Prism 5.0, the concentration response curves were generated and the potencies of the mGlu1 PAMs were determined.
Plasma protein binding: The protein binding of each compound was determined in plasma via equilibrium dialysis employing RED Plates (ThermoFisher Scientific, Rochester, NY). Plasma was added to the 96 well plate containing test compound and mixed thoroughly for a final concentration of 5 µM. […]
Each compound was assayed in triplicate within the same 96-well plate. Fraction unbound was determined using the following equation […]
After a 5 min preincubation, the reaction was initiated by addition of NADPH (1 mM). […] The in vitro half-life (T 1/2, min, Eq. 1), intrinsic clearance (CLint, mL/min/kg, Eq. 2) and subsequent predicted hepatic clearance (CLhep, mL/min/kg, Eq. 3) was determined […]

Sequence of h mGlu5 (P41594 21-1212): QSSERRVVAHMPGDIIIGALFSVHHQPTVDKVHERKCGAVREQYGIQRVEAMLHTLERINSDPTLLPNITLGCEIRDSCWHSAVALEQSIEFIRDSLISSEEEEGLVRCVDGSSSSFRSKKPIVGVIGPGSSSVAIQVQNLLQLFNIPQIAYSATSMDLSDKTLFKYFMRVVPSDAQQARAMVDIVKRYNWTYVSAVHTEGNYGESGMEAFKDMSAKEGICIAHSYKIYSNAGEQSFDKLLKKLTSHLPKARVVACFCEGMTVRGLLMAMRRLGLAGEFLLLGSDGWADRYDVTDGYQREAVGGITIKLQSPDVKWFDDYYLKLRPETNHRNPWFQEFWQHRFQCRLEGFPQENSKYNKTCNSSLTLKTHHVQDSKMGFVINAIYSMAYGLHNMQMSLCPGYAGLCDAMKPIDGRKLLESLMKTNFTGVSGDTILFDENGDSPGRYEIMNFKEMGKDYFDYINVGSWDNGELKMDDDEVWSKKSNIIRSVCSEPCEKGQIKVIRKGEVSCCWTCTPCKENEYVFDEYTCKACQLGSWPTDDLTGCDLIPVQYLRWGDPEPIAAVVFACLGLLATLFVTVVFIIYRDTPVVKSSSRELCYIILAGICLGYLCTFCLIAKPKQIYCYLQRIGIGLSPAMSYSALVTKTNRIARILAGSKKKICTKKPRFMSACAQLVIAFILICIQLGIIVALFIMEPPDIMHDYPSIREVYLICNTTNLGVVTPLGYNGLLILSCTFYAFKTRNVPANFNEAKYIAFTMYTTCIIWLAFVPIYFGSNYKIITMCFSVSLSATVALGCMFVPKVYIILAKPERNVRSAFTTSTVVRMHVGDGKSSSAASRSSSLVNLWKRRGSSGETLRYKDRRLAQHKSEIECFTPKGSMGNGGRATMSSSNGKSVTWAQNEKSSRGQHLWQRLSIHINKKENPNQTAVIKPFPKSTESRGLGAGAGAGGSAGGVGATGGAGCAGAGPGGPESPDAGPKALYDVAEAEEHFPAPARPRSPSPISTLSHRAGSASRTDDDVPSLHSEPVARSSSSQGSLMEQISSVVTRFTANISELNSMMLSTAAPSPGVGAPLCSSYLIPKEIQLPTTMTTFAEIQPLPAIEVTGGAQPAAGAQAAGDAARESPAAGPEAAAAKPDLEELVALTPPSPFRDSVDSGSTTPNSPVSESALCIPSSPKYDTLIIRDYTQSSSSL

Structure (SMILES): Cc1nc(C2CC2)ccc1CNC(=O)c1cc(-n2cccn2)ccc1Cl [compound 8]
- mGlu5 Glu Max (h mGlu5): 72%
- EC50 (h mGlu5; Table 1, unit inferred): 3.76 µM
- Predicted CLhep (c) [1]: 33.2 mL/min/kg
